Measurements reported in the NIST ThermoML archive (doi:10.1021/je9001653).
Values joined by “and” are separate entries in the source; they are usually repeats but may differ in a detail not shown here. Identical values can stand only once. Numbers after ± are expanded uncertainties.

c1ccc2cc3ccccc3cc2c1 [anthracene]
Crystal
Conditions | vapor or sublimation pressure
339.25 K | 0.000104 ± 4.3e-05 kPa
348.35 K | 0.000289 ± 5.1e-05 kPa
360.45 K | 0.000978 ± 9.3e-05 kPa
365.66 K | 0.00158 ± 0.00027 kPa
373.95 K | 0.00311 ± 0.00062 kPa
376.95 K | 0.00358 ± 0.00071 kPa
379.55 K | 0.00416 ± 0.00086 kPa
386.45 K | 0.00813 ± 0.0019 kPa
389.05 K | 0.00875 ± 0.002 kPa and 0.00962 ± 0.0023 kPa
392.95 K | 0.01486 ± 0.0039 kPa
393.75 K | 0.01211 ± 0.0032 kPa and 0.01243 ± 0.0032 kPa
398.05 K | 0.01765 ± 0.0045 kPa
398.55 K | 0.01813 ± 0.0046 kPa and 0.0185 ± 0.0047 kPa

CC(=O)[CH-]C(C)=O.CC(=O)[CH-]C(C)=O.[Cu+2] [bis(2,4-pentanedionato-O,O')copper]
Crystal
Conditions | vapor or sublimation pressure [kPa]
367.65 K | 2.2e-05
372.42 K | 3.9e-05 ± 5e-05
376.95 K | 6.8e-05 ± 5e-05
381.83 K | 0.00011 ± 5e-05
386.45 K | 0.000172 ± 0.00014
388.98 K | 0.000201 ± 0.00014
395.55 K | 0.000398 ± 0.00015
398.5 K | 0.000601 ± 0.00015
400.64 K | 0.000705 ± 0.00015
403.26 K | 0.000875 ± 0.00017
405.05 K | 0.00118 ± 0.00019
414.35 K | 0.00257 ± 0.00026
417.53 K | 0.00387 ± 0.00035
423.85 K | 0.00479 ± 0.00043
433.65 K | 0.00927 ± 0.0008
442.85 K | 0.0199 ± 0.0013

c1cc2ccc3cccc4ccc(c1)c2c34 [pyrene]
Crystal 1
Conditions | vapor or sublimation pressure [kPa]
341.45 K | 7.5e-05 ± 4.1e-05
351.05 K | 0.000171 ± 4.5e-05
369.85 K | 0.000882 ± 0.0001
373.95 K | 0.00147 ± 0.00025
379.55 K | 0.00197 ± 0.00037
383.95 K | 0.00472 ± 0.00099
389.05 K | 0.00539 ± 0.0011
392.95 K | 0.00846 ± 0.0019
398.55 K | 0.01067 ± 0.0025
402.05 K | 0.01662 ± 0.0042
408.05 K | 0.02731 ± 0.0073
